ChEMBL document CHEMBL4342523, “Discovery and Development of S6821 and S7958 as Potent TAS2R8 Antagonists” (J Med Chem, 2020)
pEC50: −log10 of the molar value.

Tests used:
[1] = target: Taste receptor type 2 member 1 (Homo sapiens, UniProt Q9NYW7); test: Agonist activity at TAS2R1 (unknown origin) by stably expressed cell-based assay
[2] = Stability of the compound in pH 6 buffer assessed as parent compound remaining measured after 60 mins at 124 degC; format: physicochemical; conditions: read-out: Stability
[3] = Maternal toxicity in po dosed Sprague-Dawley rat assessed as effect on embryo and fetal development administered via gavage during gestation period; format: ADME, organism-based; conditions: female, in vivo
[4] = Stability of the compound in pH 7.1 buffer assessed as parent compound remaining measured after 60 mins at 124 degC; format: physicochemical; conditions: read-out: Stability
[5] = target: Taste receptor type 2 member 14 (Homo sapiens, UniProt Q9NYV8); test: Agonist activity at TAS2R14 (unknown origin) by stably expressed cell-based assay
Chain of Taste receptor type 2 member 14 (Q9NYV8 whole entry): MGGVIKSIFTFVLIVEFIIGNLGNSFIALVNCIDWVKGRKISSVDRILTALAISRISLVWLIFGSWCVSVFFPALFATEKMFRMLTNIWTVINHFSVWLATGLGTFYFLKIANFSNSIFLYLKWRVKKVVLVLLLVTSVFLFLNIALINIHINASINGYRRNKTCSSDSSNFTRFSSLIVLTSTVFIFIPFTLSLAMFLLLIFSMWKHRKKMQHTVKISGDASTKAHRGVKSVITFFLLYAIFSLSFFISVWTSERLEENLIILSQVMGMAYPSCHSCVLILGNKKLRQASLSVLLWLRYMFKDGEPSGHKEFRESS

Chain of Taste receptor type 2 member 1 (Q9NYW7 whole entry): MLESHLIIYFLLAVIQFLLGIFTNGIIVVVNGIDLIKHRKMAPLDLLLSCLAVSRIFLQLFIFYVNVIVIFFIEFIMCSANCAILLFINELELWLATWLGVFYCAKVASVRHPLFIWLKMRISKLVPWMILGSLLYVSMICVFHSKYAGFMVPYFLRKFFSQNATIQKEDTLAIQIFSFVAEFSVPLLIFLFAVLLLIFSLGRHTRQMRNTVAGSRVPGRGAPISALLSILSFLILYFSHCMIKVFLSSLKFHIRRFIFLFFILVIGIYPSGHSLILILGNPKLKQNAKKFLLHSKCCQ

pEC50 [1]: 3.82
remaining at 1 h [2]: > 99%
remaining at 1 h [4]: 89%
pEC50 [5]: 4.40
Structure (SMILES): Cc1noc(C)c1Cn1cc(N2C(=O)CN(Cc3cccc(O)c3)C2=O)cn1
NOAEL [3]: 1000 mg/kg
